According to patent US20130225591A1, “IMIDOTHIAZOLE KINASE INHIBITORS” (priority 2009, published 2013):

target: T1, CDK5-p25 kinase (Homo sapiens, UniProt Q00535); assay: CDK5-p25 kinase enzymatic assay; format: biochemical; conditions: 50 nM-99 nM; 5 uM ATP, 0.3 nM CDK5-p25; read-out: IC50 potency, CDK5-p25 kinase enzymatic assay, 50 nM-99 nM
T1 construct: purchased Invitrogen PV4677
Method: CDK5-p25 kinase (Invitrogen PV4677) enzymatic activity was measured using electrophoretic separation and fluorescent detection to monitor phosphorylation of a fluorescently labeled histone H1-derived peptide substrate, FL29 (5-FAM-GGGPATPKKAKKL-CONH2, Caliper #760429)
First, 0.25 uL of serially diluted compound in DMSO at 100× concentration was transferred into each well of a 384-well polystyrene assay plate. To this was added 15 uL of a 1.67× enzyme solution (500 pM enzyme, 1 mM DTT (Sigma D9779), 1× reconstitution buffer with protease inhibitor (Caliper #700329 proprietary formulation)), followed by centrifugation for 1 min at 1000 rpm, and incubation for 5-15 min at room temperature to allow binding of compound to enzyme. To initiate the reaction, 10 uL of substrate/ATP mix (245 mM Hepes pH 7.5, 0.003% Brij 35, 0.004% Tween, 12.75 uM ATP, 3.75 uM FL29 peptide) were added to each well, followed by centrifugation at 1000 rpm for 1 min. The reaction was then incubated at room temperature for 30 min. Final assay conditions were: 0.3 nM CDK5-p25, 1.5 uM peptide, 5 uM ATP, 0.6 mM DTT, 1% DMSO, 98 mM HEPES pH 7.5.
After incubation, reactions were quenched by the addition of 45 uL Caliper termination solution (Caliper proprietary formula), followed by centrifugation at 1000 rpm for 1 min. Extent of reaction (percentage conversion of substrate to phosphorylated product) was then measured using the Caliper EZ II reader. Dose-response curves were created by plotting the inhibition of enzyme activity (normalized relative to vehicle treated and no ATP control reactions) as a function of the log of compound concentration. The curve was analyzed using a four parameter logistical fit to calculate IC50 values.

T1 sequence (Q00535 whole entry): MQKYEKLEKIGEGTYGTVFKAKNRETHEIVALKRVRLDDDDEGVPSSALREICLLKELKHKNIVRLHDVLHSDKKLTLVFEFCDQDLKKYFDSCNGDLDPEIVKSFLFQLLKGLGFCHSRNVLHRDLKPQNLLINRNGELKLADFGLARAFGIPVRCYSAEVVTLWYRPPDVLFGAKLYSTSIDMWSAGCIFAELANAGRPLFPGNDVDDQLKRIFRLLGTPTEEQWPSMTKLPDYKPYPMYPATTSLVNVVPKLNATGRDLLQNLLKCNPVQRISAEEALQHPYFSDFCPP
T1 sequence (Q15078 99-307 partner limits assumed): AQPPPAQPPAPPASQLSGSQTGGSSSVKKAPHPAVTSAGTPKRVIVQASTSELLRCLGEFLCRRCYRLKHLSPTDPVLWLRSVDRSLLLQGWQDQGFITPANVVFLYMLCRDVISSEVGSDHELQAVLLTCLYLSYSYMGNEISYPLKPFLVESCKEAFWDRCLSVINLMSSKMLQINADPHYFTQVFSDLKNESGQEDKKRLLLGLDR

Row | IC50 [nM] | Structure (SMILES)
1 | 50 to 99 | O=C(Cc1ccc(NC(=O)c2cccnc2)cc1)Nc1ncn2c(C(F)(F)F)csc12 [Example 61, N-[4-(2-oxo-2-{[3-(trifluoromethyl)imidazo[5,1-b][1,3]thiazol-7-yl]amino}ethyl)phenyl] nicotinamide]
2 | 50 to 99 | O=C(Cc1c[nH]c2ccccc12)Nc1ncn2c(C(F)(F)F)csc12 [Example 57, 2-(1H-indol-3-yl)-N-[3-(trifluoromethyl)imidazo[5,1-b][1,3]thiazol-7-yl]acetamide]
3 | 50 to 99 | Nc1ccccc1-c1ccc(CC(=O)Nc2ncn3c(C(F)(F)F)csc23)cn1 [Example 63, 2-[6-(2-aminophenyl)pyridin-3-yl]-N-[3-(trifluoromethyl)imidazo[5,1-b][1,3]thiazol-7-yl]acetamide]
4 | 50 to 99 | O=C(Cc1cccc(NC(=O)c2ccncc2)c1)Nc1ncn2c(C(F)(F)F)csc12 [Example 60, N-[3-(2-oxo-2-{[3-(trifluoromethyl)imidazo[5,1-b][1,3]thiazol-7-yl]amino}ethyl)phenyl] isonicotinamide]
5 | 50 to 99 | O=C(Cc1cccc(NC(=O)c2cccnc2)c1)Nc1ncn2c(C(F)(F)F)csc12 [Example 59, N-[3-(2-oxo-2-{[3-(trifluoromethyl)imidazo[5,1-b][1,3]thiazol-7-yl]amino}ethyl)phenyl] nicotinamide]

The remaining lines, values behind:

Row | Structure (SMILES) | IC50 [nM]
6 | O=C(Cc1ccc2ccccc2c1)Nc1ncn2c(C(F)F)csc12 [Example 41, N-[3-(difluoromethyl)imidazo[5,1-b][1,3]thiazol-7-yl]-2-(2-naphthyl) acetamide] | 50 to 99
7 | O=C(Nc1ncn2c(C(F)(F)F)csc12)C(Cl)c1ccc2ccccc2c1 (stereo not shown) [Example 42, 2-chloro-2-(2-naphthyl)-N-[3-(trifluoromethyl)imidazo[5,1-b][1,3]thiazol-7-yl]acetamide] | 50 to 99

same assay, conditions: 500 nM-3 μM; 5 uM ATP, 0.3 nM CDK5-p25; read-out: IC50 potency, CDK5-p25 kinase enzymatic assay, 500 nM-3 μM

Row | IC50 [nM] | Structure (SMILES)
8 | 500 to 3000 | O=C(Cc1ccc2ccccc2c1)Nc1ncn2c(C3CC3)csc12 [Example 38, N-(3-cyclopropyl-imidazo[5,1-b][1,3]thiazol-7-yl)-2-(2-naphthyl) acetamide]
9 | 500 to 3000 | O=C(Cc1cc2ccccc2cn1)Nc1ncn2c(C(F)(F)F)csc12 [Example 8, 2-isoquinolin-3-yl-N-[3-(trifluoromethyl)imidazo[5,1-b][1,3]thiazol-7-yl]acetamide]
10 | 500 to 3000 | Cc1csc2c(NC(=O)Cc3ccc4ccccc4c3)ncn12 [Example 65, N-(3-methylimidazo [5,1-b][1,3]thiazol-7-yl)-2-(2-naphthyl) acetamide]
11 | 500 to 3000 | C[C@@H](C(=O)Nc1ncn2c(C(F)(F)F)csc12)c1ccc2ncccc2c1 [Example 47, (2R)-2-quinolin-6-yl-N-[3-(trifluoromethyl)imidazo[5,1-b][1,3]thiazol-7-yl]propanamide]

same assay, conditions: 5 uM ATP, 0.3 nM CDK5-p25; read-out: IC50 potency, CDK5-p25 kinase enzymatic assay, 100 nM-499 nM

Row | IC50 [nM] | Structure (SMILES)
12 | 100 to 499 | O=C(CN1Cc2ccccc2C1)Nc1ncn2c(C(F)(F)F)csc12 [Example 68, 2-(1,3-dihydro-2H-isoindol-2-yl)-N-[3-(trifluoromethyl)imidazo[5,1-b][1,3]thiazol-7-yl]acetamide]
13 | 100 to 499 | O=C(Cc1ccnnc1)Nc1ncn2c(C(F)(F)F)csc12 [Example 72, 2-pyridazin-4-yl-N-[3-(trifluoromethyl)imidazo[5,1-b][1,3]thiazol-7-yl]acetamide]

The next lines start with the compound.

Row | Structure (SMILES) | IC50 [nM]
14 | COc1cccc(-c2ccc(CC(=O)Nc3ncn4c(C(F)(F)F)csc34)cc2)c1 [Example 10, 2-(3′-methoxybiphenyl-4-yl)-N-[3-(trifluoromethyl)imidazo[5,1-b][1,3]thiazol-7-yl]acetamide] | 100 to 499
15 | O=C(Cc1cn2ccccc2n1)Nc1ncn2c(C(F)(F)F)csc12 [Example 29, 2-imidazo[1,2-a]pyridin-2-yl-N-[3-(trifluoromethyl)imidazo[5,1-b][1,3]thiazol-7-yl]acetamide] | 100 to 499
16 | O=C(CC1CCOCC1)Nc1ncn2c(C(F)(F)F)csc12 [Example 21, 2-(tetrahydro-2H-pyran-4-yl)-N-[3-(trifluoromethyl)imidazo[5,1-b][1,3]thiazol-7-yl]acetamide] | 100 to 499

same assay, conditions: '<50 nM'; 5 uM ATP, 0.3 nM CDK5-p25; read-out: IC50 potency, CDK5-p25 kinase enzymatic assay, <50 nM

Row | IC50 [nM] | Structure (SMILES)
17 | < 50 | O=C(Cc1cccc(-c2nn[nH]n2)c1)Nc1ncn2c(C(F)(F)F)csc12 [Example 80, 2-[3-(2H-tetrazol-5-yl)phenyl]-N-[3-(trifluoromethyl)imidazo[5,1-b][1,3]thiazol-7-yl]acetamide]
18 | < 50 | O=C(Cc1ccc(-c2nn[nH]n2)cc1)Nc1ncn2c(C(F)(F)F)csc12 [Example 81, 2-[4-(2H-tetrazol-5-yl)phenyl]-N-[3-(trifluoromethyl)imidazo[5,1-b][1,3]thiazol-7-yl]acetamide]
19 | < 50 | O=C(Cc1cccc2ccccc12)Nc1ncn2c(C(F)(F)F)csc12 [Example 66, 2-(1-naphthyl)-N-[3-(trifluoromethyl)imidazo[5,1-b][1,3]thiazol-7-yl]acetamide]
20 | < 50 | O=C(Cc1ccc(-c2ccccn2)cc1)Nc1ncn2c(C(F)(F)F)csc12 [Example 54, 2-(4-pyridin-2-ylphenyl)-N-[3-(trifluoromethyl)imidazo[5,1-b][1,3]thiazol-7-yl]acetamide]
21 | < 50 | O=C(Cc1ccc(-c2ccsc2)cc1)Nc1ncn2c(C(F)(F)F)csc12 [Example 53, 2-[4-(3-thienyl)phenyl]-N-[3-(trifluoromethyl)imidazo[5,1-b][1,3]thiazol-7-yl]acetamide]
22 | < 50 | O=C(Cc1ccc2ccccc2c1)Nc1ncn2c(C(F)(F)F)c(C(=O)O)sc12 [Example 85, 7-[(Naphthalen-2-ylacetyl)amino]-3-(trifluoromethyl)imidazo[5,1-b][1,3]thiazole-2-carboxylic Acid]
23 | < 50 | O=C(Cc1cccc(-c2ccncc2)c1)Nc1ncn2c(C(F)(F)F)csc12 [Example 64, 2-(3-pyridin-4-ylphenyl)-N-[3-(trifluoromethyl)imidazo[5,1-b][1,3]thiazol-7-yl]acetamide]

Continued, compound first:

Row | Structure (SMILES) | IC50 [nM]
24 | O=C(Cc1ccc2cccnc2c1)Nc1ncn2c(C(F)(F)F)csc12 [Example 13, 2-quinolin-7-yl-N-(3-(trifluoromethyl)imidazo[5,1-b][1,3]thiazol-7-yl]acetamide] | < 50
25 | COc1ccc2cc(CC(=O)Nc3ncn4c(C(F)(F)F)csc34)ccc2c1 [Example 6, 2-(6-methoxy-2-naphthyl)-N-[3-(trifluoromethyl)imidazo[5,1-b][1,3]thiazol-7-yl]acetamide] | < 50
26 | O=C(Cc1cccc(-c2cccnc2)c1)Nc1ncn2c(C(F)(F)F)csc12 [Example 52, 2-(3-pyridin-3-ylphenyl)-N-[3-(trifluoromethyl)imidazo[5,1-b][1,3]thiazol-7-yl]acetamide] | < 50
27 | O=C(Cc1cccc(-c2cc[nH]n2)c1)Nc1ncn2c(C(F)(F)F)csc12 [Example 48, 2-[3-(1H-pyrazol-3-yl)phenyl]-N-[3-(trifluoromethyl)imidazo[5,1-b][1,3]thiazol-7-yl]acetamide] | < 50
28 | COc1ccc2ccc(CC(=O)Nc3ncn4c(C(F)(F)F)csc34)cc2c1 [Example 9, 2-(7-methoxy-2-naphthyl)-N-[3-(trifluoromethyl)imidazo[5,1-b][1,3]thiazol-7-yl]acetamide] | < 50
29 | O=C(Cc1ccc(-c2cccnc2)cc1)Nc1ncn2c(C(F)(F)F)csc12 [Example 11, 2-(4-pyridin-3-ylphenyl)-N-[3-(trifluoromethyl)imidazo[5,1-b][1,3]thiazol-7-yl]acetamide] | < 50
30 | O=C(Cc1ccc(-c2ccccc2)nc1)Nc1ncn2c(C(F)(F)F)csc12 [Example 50, 2-(6-phenylpyridin-3-yl)-N-[3-(trifluoromethyl)imidazo[5,1-b][1,3]thiazol-7-yl]acetamide] | < 50
31 | O=C(Cc1ccc2cnccc2c1)Nc1ncn2c(C(F)(F)F)csc12 [Example 5, 2-isoquinolin-6-yl-N-[3-(trifluoromethyl)imidazo[5,1-b][1,3]thiazol-7-yl]acetamide] | < 50
32 | O=C(Cc1ccc2ccccc2c1)Nc1ncn2c(C(F)(F)F)csc12 [Example 2, 2-(2-naphthyl)-N-[3-(trifluoromethyl)imidazo[5,1-b][1,3]thiazol-7-yl]acetamide] | < 50
33 | COc1cccc2cc(CC(=O)Nc3ncn4c(C(F)(F)F)csc34)ccc12 [Example 14, 2-(5-methoxy-2-naphthyl)-N-[3-(trifluoromethyl)imidazo[5,1-b][1,3]thiazol-7-yl]acetamide] | < 50
34 | O=C(Cc1ccc(-c2cn[nH]c2)cc1)Nc1ncn2c(C(F)(F)F)csc12 [Example 16, 2-[4-(1H-pyrazol-4-yl)phenyl]-N-(3-(trifluoromethyl)imidazo[5,1-b][1,3]thiazol-7-yl]acetamide] | < 50
